Source: patent publication US12545640B2, “Substituted 6,7-dihydro-5H-benzo[7]annulene compounds, processes for their preparation and therapeutic uses thereof” (SANOFI, priority 2019, dated 2026)
Structures can show the parent of a compound that is named as a salt.

target: T1, ERα (Homo sapiens, UniProt P03372); assay: Estrogen receptor degradation activity: breast cancer cell ERα in cell western assay (MCF7 cells); format: cell-based; conditions: 4 hours, final concentrations ranging from 0.3-0.0000018 μM, relative to fulvestrant 0.1 μM positive control
T1 construct: host or cells: MCF7 cells
T1 sequence (P03372 1-595): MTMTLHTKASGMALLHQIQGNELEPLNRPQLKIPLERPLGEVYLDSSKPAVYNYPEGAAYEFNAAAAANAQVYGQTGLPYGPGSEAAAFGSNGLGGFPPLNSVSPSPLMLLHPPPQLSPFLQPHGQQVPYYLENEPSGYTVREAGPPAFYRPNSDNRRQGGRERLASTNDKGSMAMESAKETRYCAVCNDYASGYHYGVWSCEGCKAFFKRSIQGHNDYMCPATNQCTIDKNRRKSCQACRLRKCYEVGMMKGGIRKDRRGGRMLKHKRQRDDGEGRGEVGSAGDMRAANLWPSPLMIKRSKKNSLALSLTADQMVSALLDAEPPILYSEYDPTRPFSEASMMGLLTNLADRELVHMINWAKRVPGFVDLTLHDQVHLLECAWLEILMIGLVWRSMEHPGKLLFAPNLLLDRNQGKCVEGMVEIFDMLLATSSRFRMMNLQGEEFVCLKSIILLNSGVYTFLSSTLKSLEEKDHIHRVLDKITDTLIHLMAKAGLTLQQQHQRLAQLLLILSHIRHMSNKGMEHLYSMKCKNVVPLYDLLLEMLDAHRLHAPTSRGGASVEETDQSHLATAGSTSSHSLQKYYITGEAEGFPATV
How it was run: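 MCF7 cells in phenol red-free MEM alpha with 5% charcoal-stripped FBS, treated 4 h with 9-point 1:5 dilutions (top final 3 or 0.3 μM); fulvestrant 0.1 μM as positive control. Formalin-fixed, anti-ER antibody with Alexa 488 secondary; ERα fluorescence normalised to Syto-64 DNA signal.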

| SMILES | % Degradation At 0.3 μM [%] |
| --- | --- |
| C/N=c1\scc(-c2ccc3c(c2)CCCC(c2ccc(Cl)cc2Cl)=C3c2ccc(O[C@H]3CCN(CCCF)C3)cc2)n1C [Example 69, (S,Z)-4-(8-(2,4-dichlorophenyl)-9-(4-((1-(3-fluoropropyl)pyrrolidin-3-yl)oxy)phenyl)-6,7-dihydro-5H-benzo[7]annulen-3-yl)-N,3-dimethylthiazol-2(3H)-imine hydrochloride] | 69 |
| CC(C)(C)OC(=O)Nc1ccc2c(c1)CCCC(c1ccccc1)=C2c1ccc(O[C@H]2CCN(CCCF)C2)cc1 [Example 71, tert-butyl (S)-(9-(4-((1-(3-fluoropropyl)pyrrolidin-3-yl)oxy)phenyl)-8-phenyl-6,7-dihydro-5H-benzo[7]annulen-3-yl)carbamate] | 91 |
| CCOc1ccc(C2=C(c3ccc(O[C@H]4CCN(CCCF)C4)cc3)c3ccc(C(N)=O)cc3CCC2)c(F)n1 [Example 79, (S)-8-(6-ethoxy-2-fluoropyridin-3-yl)-9-(4-((1-(3-fluoropropyl)pyrrolidin-3-yl)oxy)phenyl)-6,7-dihydro-5H-benzo[7]annulene-3-carboxamide] | 91 |
| CCOc1ccc(C2=C(c3ccc(O[C@H]4CCN(CCCF)C4)cc3)c3ccc(C#N)cc3CCC2)c(F)n1 [Example 80, (S)-8-(6-ethoxy-2-fluoropyridin-3-yl)-9-(4-((1-(3-fluoropropyl)pyrrolidin-3-yl)oxy)phenyl)-6,7-dihydro-5H-benzo[7]annulene-3-carbonitrile 2,2,2-trifluoroacetate] | 90 |
| COC(=O)c1ccccc1-c1ccc2c(c1)CCCC(c1ccc(Cl)cc1Cl)=C2c1ccc(O[C@H]2CCN(CCCF)C2)cc1 [Example 83, methyl (S)-2-(8-(2,4-dichlorophenyl)-9-(4-((1-(3-fluoropropyl)pyrrolidin-3-yl)oxy)phenyl)-6,7-dihydro-5H-benzo[7]annulen-3-yl)benzoate] | 63 |
| CS(=O)(=O)Nc1ccc2c(c1)CCCC(c1cccc(F)c1Cl)=C2c1ccc(O[C@H]2CCN(CCCF)C2)cc1 [Example 90, (S)—N-(8-(2-chloro-3-fluorophenyl)-9-(4-((1-(3-fluoropropyl)pyrrolidin-3-yl)oxy)phenyl)-6,7-dihydro-5H-benzo[7]annulen-3-yl)methanesulfonamide] | 77 |
| CC1(C)OB(c2ccc3c(c2)CCCC(c2ccccc2)=C3c2ccc(O[C@H]3CCN(CCCF)C3)cc2)OC1(C)C [Example 91, (S)-1-(3-fluoropropyl)-3-(4-(8-phenyl-3-(4,4,5,5-tetramethyl-1,3,2-dioxaborolan-2-yl)-6,7-dihydro-5H-benzo[7]annulen-9-yl)phenoxy)pyrrolidine] | 90 |
| OB(O)c1ccc2c(c1)CCCC(c1ccccc1)=C2c1ccc(O[C@H]2CCN(CCCF)C2)cc1 [Example 92, (S)-(9-(4-((1-(3-fluoropropyl)pyrrolidin-3-yl)oxy)phenyl)-8-phenyl-6,7-dihydro-5H-benzo[7]annulen-3-yl)boronic acid] | 85 |
| CC(C)(O)c1cccc(-c2ccc3c(c2)CCCC(c2ccc(Cl)cc2Cl)=C3c2ccc(O[C@H]3CCN(CCCF)C3)cc2)c1 [Example 94, (S)-2-(3-(8-(2,4-dichlorophenyl)-9-(4-((1-(3-fluoropropyl)pyrrolidin-3-yl)oxy)phenyl)-6,7-dihydro-5H-benzo[7]annulen-3-yl)phenyl)propan-2-ol] | 64 |
| O=[N+]([O-])c1cccc(-c2ccc3c(c2)CCCC(c2cccc(F)c2Cl)=C3c2ccc(O[C@H]3CCN(CCCF)C3)cc2)c1 [Example 96, (S)-3-(4-(8-(2-chloro-3-fluorophenyl)-3-(3-nitrophenyl)-6,7-dihydro-5H-benzo[7]annulen-9-yl)phenoxy)-1-(3-fluoropropyl)pyrrolidine] | 76 |

Next, values leading:

| % Degradation At 0.3 μM [%] | SMILES |
| --- | --- |
| 79 | CC1(C(=O)Nc2ccc3c(c2)CCCC(c2ccc(Cl)cc2Cl)=C3c2ccc(O[C@H]3CCN(CCCF)C3)cc2)CC1 [Example 67, (S)—N-(8-(2,4-dichlorophenyl)-9-(4-((1-(3-fluoropropyl)pyrrolidin-3-yl)oxy)phenyl)-6,7-dihydro-5H-benzo[7]annulen-3-yl)-1-methylcyclopropane-1-carboxamide] |
| 74 | O=C(O)c1ccc(-c2ccc3c(c2)CCCC(c2ccc(Cl)cc2Cl)=C3c2ccc(O[C@H]3CCN(CCCF)C3)cc2)cc1 [Example 72, (S)-4-(8-(2,4-dichlorophenyl)-9-(4-((1-(3-fluoropropyl)pyrrolidin-3-yl)oxy)phenyl)-6,7-dihydro-5H-benzo[7]annulen-3-yl)benzoic acid] |
| 89 | Nc1cc(-c2ccc3c(c2)CCCC(c2ccc(Cl)cc2Cl)=C3c2ccc(O[C@H]3CCN(CCCF)C3)cc2)n[nH]1 [Example 73, (S)-3-(8-(2,4-dichlorophenyl)-9-(4-((1-(3-fluoropropyl)pyrrolidin-3-yl)oxy)phenyl)-6,7-dihydro-5H-benzo[7]annulen-3-yl)-1H-pyrazol-5-amine] |
| 59 | O=C(c1ccc2c(c1)CCCC(c1ccc(Cl)cc1Cl)=C2c1ccc(O[C@H]2CCN(CCCF)C2)cc1)N1CC(O)C1 [Example 74, (S)-(8-(2,4-dichlorophenyl)-9-(4-((1-(3-fluoropropyl)pyrrolidin-3-yl)oxy)phenyl)-6,7-dihydro-5H-benzo[7]annulen-3-yl)(3-hydroxyazetidin-1-yl)methanone] |
| 71 | O=C(NC1COC1)c1ccc2c(c1)CCCC(c1ccc(Cl)cc1Cl)=C2c1ccc(O[C@H]2CCN(CCCF)C2)cc1 [Example 75, (S)-8-(2,4-dichlorophenyl)-9-(4-((1-(3-fluoropropyl)pyrrolidin-3-yl)oxy)phenyl)-N-(oxetan-3-yl)-6,7-dihydro-5H-benzo[7]annulene-3-carboxamide] |
| 75 | CCOC(=O)C(=O)Nc1ccc2c(c1)CCCC(c1ccc(Cl)cc1Cl)=C2c1ccc(O[C@H]2CCN(CCCF)C2)cc1 [Example 76, ethyl (S)-2-((8-(2,4-dichlorophenyl)-9-(4-((1-(3-fluoropropyl)pyrrolidin-3-yl)oxy)phenyl)-6,7-dihydro-5H-benzo[7]annulen-3-yl)amino)-2-oxoacetate] |
| 55 | NC(=O)C(=O)Nc1ccc2c(c1)CCCC(c1ccc(Cl)cc1Cl)=C2c1ccc(O[C@H]2CCN(CCCF)C2)cc1 [Example 77, (S)—N1-(8-(2,4-dichlorophenyl)-9-(4-((1-(3-fluoropropyl)pyrrolidin-3-yl)oxy)phenyl)-6,7-dihydro-5H-benzo[7]annulen-3-yl)oxalamide] |
| 67 | NC(=O)c1ccc(-c2ccc3c(c2)CCCC(c2ccc(Cl)cc2Cl)=C3c2ccc(O[C@H]3CCN(CCCF)C3)cc2)cc1 [Example 81, (S)-4-(8-(2,4-dichlorophenyl)-9-(4-((1-(3-fluoropropyl)pyrrolidin-3-yl)oxy)phenyl)-6,7-dihydro-5H-benzo[7]annulen-3-yl)benzamide] |
| 71 | O=C(Nc1ccc2c(c1)CCCC(c1ccc(Cl)cc1Cl)=C2c1ccc(O[C@H]2CCN(CCCF)C2)cc1)C1(O)CC1.O=CO [Example 84, (S)—N-(8-(2,4-dichlorophenyl)-9-(4-((1-(3-fluoropropyl)pyrrolidin-3-yl)oxy)phenyl)-6,7-dihydro-5H-benzo[7]annulen-3-yl)-1-hydroxycyclopropane-1-carboxamide formate] |
| 69 | O=C1C[C@H](O)CN1c1ccc2c(c1)CCCC(c1ccc(Cl)cc1Cl)=C2c1ccc(O[C@H]2CCN(CCCF)C2)cc1 [Example 85, (S)-1-(8-(2,4-dichlorophenyl)-9-(4-(((S)-1-(3-fluoropropyl)pyrrolidin-3-yl)oxy)phenyl)-6,7-dihydro-5H-benzo[7]annulen-3-yl)-4-hydroxypyrrolidin-2-one] |
| 88 | O=C(O)c1ccccc1-c1ccc2c(c1)CCCC(c1ccc(Cl)cc1Cl)=C2c1ccc(O[C@H]2CCN(CCCF)C2)cc1 [Example 86, (S)-2-(8-(2,4-dichlorophenyl)-9-(4-((1-(3-fluoropropyl)pyrrolidin-3-yl)oxy)phenyl)-6,7-dihydro-5H-benzo[7]annulen-3-yl)benzoic acid] |
| 73 | O=C(Nc1ccc2c(c1)CCCC(c1ccc(Cl)cc1Cl)=C2c1ccc(O[C@H]2CCN(CCCF)C2)cc1)C1CC1(F)F (stereo partly drawn) [Example 87, N-(8-(2,4-dichlorophenyl)-9-(4-(((S)-1-(3-fluoropropyl)pyrrolidin-3-yl)oxy)phenyl)-6,7-dihydro-5H-benzo[7]annulen-3-yl)-2,2-difluorocyclopropane-1-carboxamide] |

same assay, conditions: 4 hours, final concentrations ranging from 3-0.000018 μM, relative to fulvestrant 0.1 μM positive control

| SMILES | % Degradation At 3 μM [%] |
| --- | --- |
| O=C(O)Cc1ccc2c(c1)CCCC(c1ccc(Cl)cc1Cl)=C2c1ccc(O[C@H]2CCN(CCCF)C2)cc1 [Example 93, (S)-2-(8-(2,4-dichlorophenyl)-9-(4-((1-(3-fluoropropyl)pyrrolidin-3-yl)oxy)phenyl)-6,7-dihydro-5H-benzo[7]annulen-3-yl)acetic acid] | 84 |
